According to PubChem BioAssay AID328 (DTP/NCI, 2004):
Several values for one entry are separate records, joined by “and”; a condition that tells them apart may be missing. Equal entries are not always repeated. Inconclusive results and toxic doses are left out. The calls were made as follows: active = survival T/C of 150% or more; inactive = T/C below 125% in these data. Residues, ends and D or L forms follow the SMILES beside them. *: point of attachment. Cbz = O=C(OCc1ccccc1)*

Test system: BDF1 mice, P388 leukemia ip, median survival T/C
Assay: NCI In Vivo Anticancer Drug Screen. Data for tumor model P388 Leukemia (intraperitoneal) in B6D2F1 (BDF1) mice
Conditions: endpoint: median survival time, higher = longer survival
Outline: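 In tumour-bearing mice, survival after compound treatment is set against the vehicle group and given as a quotient.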

[1] = dose: 100.0 mg/kg/injection, schedule: Q01DX009 (ip), vehicle: saline with Tween-80
[2] = dose: 200.0 mg/kg/injection, schedule: Q01DX009 (ip), vehicle: saline with Tween-80
[3] = dose: 400.0 mg/kg/injection, schedule: Q01DX009 (ip), vehicle: saline with Tween-80
[4] = dose: 100.0 mg/kg/injection, schedule: Q04DX003 (ip), vehicle: saline with Tween-80
[5] = dose: 200.0 mg/kg/injection, schedule: Q04DX003 (ip), vehicle: saline with Tween-80
[6] = dose: 400.0 mg/kg/injection, schedule: Q04DX003 (ip), vehicle: saline with Tween-80
[7] = dose: 50.0 mg/kg/injection, schedule: Q01DX009 (ip), vehicle: saline with Tween-80
[8] = dose: 12.5 mg/kg/injection, schedule: Q01DX009 (ip), vehicle: saline with Tween-80

Measured: T/C

BrCc1ccc(CBr)c(Br)c1
inactive: dose: 6.0 mg/kg/injection, schedule: Q01DX009 (ip), vehicle: Klucel (hydroxypropylcellulose) (HPC) 89 % of control | dose: 6.25 mg/kg/injection, schedule: Q04DX003 (ip), vehicle: Klucel (hydroxypropylcellulose) (HPC) 92 % of control | dose: 12.0 mg/kg/injection, schedule: Q01DX009 (ip), vehicle: Klucel (hydroxypropylcellulose) (HPC) 103 % of control | dose: 12.5 mg/kg/injection, schedule: Q04DX003 (ip), vehicle: Klucel (hydroxypropylcellulose) (HPC) 96 % of control | dose: 25.0 mg/kg/injection, schedule: Q01DX009 (ip), vehicle: Klucel (hydroxypropylcellulose) (HPC) 96 % of control | dose: 25.0 mg/kg/injection, schedule: Q04DX003 (ip), vehicle: Klucel (hydroxypropylcellulose) (HPC) 100 % of control

Cc1cnc(O[Si](C)(C)C)nc1O[Si](C)(C)C
inactive: [1] 100 % of control | [2] 91 % of control | [3] 116 % of control

CCCc1nn2c(-c3ccccc3)nnc2o1
inactive: [4] 110 % of control | [5] 115 % of control | [6] 110 % of control

O=C(NNC(=O)C12CC3CC(CC(C3)C1)C2)c1ccncc1
inactive: [7] 96 % of control | [1] 101 % of control | [2] 92 % of control

CCCC1CC[N-]CC1.CCCC1CC[N-]CC1.CCCC1CC[N-]CC1.CCCC1CC[N-]CC1.[Cl][Rh][Cl]
inactive: dose: 0.35 mg/kg/injection, schedule: Q01DX009 (ip), vehicle: saline 122 % of control | dose: 0.53 mg/kg/injection, schedule: Q01DX009 (ip), vehicle: saline 123 % of control | dose: 0.8 mg/kg/injection, schedule: Q01DX009 (ip), vehicle: saline 119 % of control | dose: 3.0 mg/kg/injection, schedule: Q01DX009 (ip), vehicle: Klucel (hydroxypropylcellulose) (HPC) 86 % of control

S=C(Nc1cc2c3c(c1)CCCN3CCC2)Nc1cc2c3c(c1)CCCN3CCC2
inactive: dose: 100.0 mg/kg/injection, schedule: Q01DX001 (ip), vehicle: saline with Tween-80 109 % of control | dose: 200.0 mg/kg/injection, schedule: Q01DX001 (ip), vehicle: saline with Tween-80 100 % of control | dose: 400.0 mg/kg/injection, schedule: Q01DX001 (ip), vehicle: saline with Tween-80 95 % of control

O=C1c2ccccc2C(=O)c2cc3c(cc21)CCCC3
inactive: dose: 50.0 mg/kg/injection, schedule: Q01DX009 (ip), vehicle: water 94 % of control | dose: 100.0 mg/kg/injection, schedule: Q01DX009 (ip), vehicle: water 87 % of control | dose: 400.0 mg/kg/injection, schedule: Q01DX009 (ip), vehicle: water 96 % of control | dose: 800.0 mg/kg/injection, schedule: Q01DX009 (ip), vehicle: water 107 % of control

COc1cccc(C=O)c1OC
inactive: dose: 50.0 mg/kg/injection, schedule: Q04DX003 (ip), vehicle: saline with Tween-80 112 % of control | [4] 107 % of control | [5] 112 % of control | [6] 107 % of control

O=[N+]([O-])C(Cl)(Cl)C(Cl)(Cl)[N+](=O)[O-]
inactive: dose: 1.25 mg/kg/injection, schedule: Q01DX009 (ip), vehicle: other 100 % of control | dose: 2.5 mg/kg/injection, schedule: Q01DX009 (ip), vehicle: other 100 % of control | dose: 2.5 mg/kg/injection, schedule: Q04DX003 (ip), vehicle: other 87 % of control | dose: 5.0 mg/kg/injection, schedule: Q01DX009 (ip), vehicle: other 95 % of control | dose: 5.0 mg/kg/injection, schedule: Q04DX003 (ip), vehicle: other 104 % of control

O/C(=C\C(=S)S)c1ccc(Cl)cc1
inactive: dose: 0.39 mg/kg/injection, schedule: Q04DX003 (ip), vehicle: saline with Tween-80 100 % of control | dose: 0.78 mg/kg/injection, schedule: Q01DX009 (ip), vehicle: saline with Tween-80 97 % of control | dose: 0.78 mg/kg/injection, schedule: Q04DX003 (ip), vehicle: saline with Tween-80 92 % of control and 106 % of control (2×) | dose: 1.56 mg/kg/injection, schedule: Q01DX009 (ip), vehicle: saline with Tween-80 118 % of control | dose: 1.56 mg/kg/injection, schedule: Q04DX003 (ip), vehicle: saline with Tween-80 97 % of control and 113 % of control | dose: 3.12 mg/kg/injection, schedule: Q01DX009 (ip), vehicle: saline with Tween-80 106 % of control | dose: 3.12 mg/kg/injection, schedule: Q04DX003 (ip), vehicle: saline with Tween-80 95 % of control and 100 % of control and 120 % of control | dose: 6.25 mg/kg/injection, schedule: Q01DX009 (ip), vehicle: saline with Tween-80 112 % of control | dose: 6.25 mg/kg/injection, schedule: Q04DX003 (ip), vehicle: saline with Tween-80 88 % of control and 103 % of control | [8] 86 % of control

O=C(O)C(Cc1ccccc1)NC(=O)C1CCCN1C(=O)OCc1ccccc1 (stereo not drawn) (Cbz-Pro-Phe-OH; configuration not given here)
inactive: dose: 50.0 mg/kg/injection, schedule: Q01DX005 (ip), vehicle: saline with Tween-80 97 % of control | dose: 100.0 mg/kg/injection, schedule: Q01DX005 (ip), vehicle: saline with Tween-80 101 % of control | dose: 200.0 mg/kg/injection, schedule: Q01DX005 (ip), vehicle: saline with Tween-80 95 % of control

O=c1[nH]cnc2ccnn12
inactive: dose: 25.0 mg/kg/injection, schedule: Q01DX009 (ip), vehicle: saline 103 % of control | dose: 50.0 mg/kg/injection, schedule: Q01DX009 (ip), vehicle: saline 100 % of control | dose: 75.0 mg/kg/injection, schedule: Q01DX009 (ip), vehicle: saline 101 % of control | dose: 100.0 mg/kg/injection, schedule: Q01DX009 (ip), vehicle: saline 100 % of control | dose: 200.0 mg/kg/injection, schedule: Q01DX009 (ip), vehicle: saline 90 % of control

Cc1ccc(C)c2c1CCCC2=O
inactive: [7] 86 % of control | [1] 90 % of control | [2] 100 % of control | [3] 86 % of control

Nc1nc(N)c2cc([N+](=O)[O-])ccc2n1
inactive: [7] 96 % of control | [1] 101 % of control | [2] 99 % of control | [3] 95 % of control

CC(=O)/C=N/Nc1ccccc1
inactive: dose: 50.0 mg/kg/injection, schedule: Q04DX003 (ip), vehicle: Klucel (hydroxypropylcellulose) (HPC) 109 % of control | dose: 66.0 mg/kg/injection, schedule: Q04DX003 (ip), vehicle: Klucel (hydroxypropylcellulose) (HPC) 110 % of control | dose: 100.0 mg/kg/injection, schedule: Q04DX003 (ip), vehicle: Klucel (hydroxypropylcellulose) (HPC) 120 % of control | dose: 150.0 mg/kg/injection, schedule: Q04DX003 (ip), vehicle: Klucel (hydroxypropylcellulose) (HPC) 120 % of control | dose: 200.0 mg/kg/injection, schedule: Q04DX003 (ip), vehicle: Klucel (hydroxypropylcellulose) (HPC) 95 % of control

CCCCCCCC[N+](C)(C)CCSCC[N+](C)(C)CCCCCCCC
inactive: [8] 109 % of control

COc1ccc(C(=O)C/C(=N\N(C(=O)c2ccc(OC)cc2)c2ccccc2)c2ccc(OC)cc2)cc1
inactive: [7] 104 % of control | [1] 100 % of control | [2] 100 % of control
